Patent US20230404995A1, “COMPOSITIONS AND METHODS FOR TREATING PULMONARY FIBROSIS” (priority 2020, published 2023)

Legend:
WI-38 lung fibroblasts [1] = experiment: TGF-β induced collagen production in WI-38 lung fibroblasts (immunofluorescent imaging); assay type: cell-based; conditions: serum starved WI-38, TGF-β 5 ng/ml, 48 hours, quinacrine 2.5 μM; FIG. 2D
Procedure: It is well established that during fibrotic diseases, fibroblasts and epithelial cells are transformed in myofibroblasts (mesenchymal cells), which secrete excess amount of extracellular matrix (ECM), one of the major components being interstitial collagen at the site of tissue injury. Serum starved WI-38 lung fibroblasts were activated with TGF-β (5 ng/ml; 48 hours), and QA's efficacy's in inhibiting collagen production due to transition of fibroblasts in collagen-secreting fibroblasts was tested.

[2] = tested on: primary human bronchial epithelial (HBE) cells; experiment: Cell viability of HBE cells (Cell Titer Blue cell viability kit); assay type: cell-based; conditions: QA 0.039-10 μM, 24 hours, FIG. 3
Procedure: A cell viability study was carried out on HBE cells using Cell Titer Blue cell viability kit. Briefly, cells were treated with varying concentrations of QA (0.039-10 μM), for 24 hours, and media was used as a control. Fluorescence readings were taken at 540/590 nm using a Spark 10M Plate Reader (Tecan, Switzerland).

HBE cells = experiment: TGF-β induced epithelial-mesenchymal transition (EMT) in HBE cells, cell imaging; assay type: cell-based, human; conditions: TGF-β 10 ng/mL, QA 0.5, 1, 2.5 and 5 μM tested, 24 and 48 hours, FIG. 4
Procedure: For TGF-β induced epithelial mesenchymal transition (EMT) images, HBE cells (50,000 cells/well) were seeded in a 6-well culture plate. Next day, all treatments (except the medium control) were starved with replacement of growth factor-absent media. After 24 hours incubation, the QA treatments were administered: 0.5, 1, 2.5, and 5 μM. Each treatment also included 10 ng/mL of TGF-β. The remaining 2 wells were treated with regular media and TGF-β as the negative control and positive control, respectively. Individual images of the cells were taken with an EVOS-FL Cell imaging fluorescence microscope (Thermo Fisher Scientific, Waltham, MA, USA) after 24 and 48 hours.
EMT is presented by morphological changes following TGF-beta treatment, and subsequent reversal with QA treatment.

WI-38 lung fibroblasts [3] = experiment: Growth factor induced hyper-proliferation of WI-38 lung fibroblasts
[4] = tested on: A549 alveolar epithelial cells; experiment: TGF-β induced epithelial-mesenchymal transition (EMT) in A549 cells: morphology and E-cadherin expression

`CCN(CC)CCCC(C)Nc1c2ccc(Cl)cc2nc2ccc(OC)cc12` (stereo not shown) [QA, quinacrine] was tested, and the collagen expression (WI-38 lung fibroblasts [1]) was “significantly reduced”, the cell viability [2] was over 85% and the “lowest concentrations that effectively inhibited TGF-beta induced EMT (morphological changes)” value (HBE cells) was 0.5-1 μM. For the same compound, the FGF induced hyper-proliferation (WI-38 lung fibroblasts [3]; WI-38, FGF 10 ng/ml, 72 hours, FIG. 2C) was “dose-dependent reduction”, the PDGF-BB induced hyper-proliferation (WI-38 lung fibroblasts [3]; WI-38, PDGF-BB 10 ng/ml, 72 hours, FIG. 2B) was “dose-dependent reduction” and the “fibroblast proliferation in the presence of TGF-β” value (WI-38 lung fibroblasts [3]; WI-38, TGF-β 10 ng/ml, 48 hours, FIG. 2A) was “dose-dependent reduction”. For the same compound, the “viability (cytotoxicity of the QA doses used)” value (WI-38 lung fibroblasts [3]; WI-38 lung fibroblasts, all doses of QA used in the proliferation study) was over 90%, the “E-cadherin expression, western blot (compared to β-actin)” value ([4]; A549 cells co-incubated with QA 2.5 μM and TGF-β 5 ng/ml, TGF-β alone gave 40% reduction, FIGS. 1C-D) was “completely restored” and the “E-cadherin expression, immunofluorescence” value ([4]; A549 cells, TGF-β 5 ng/ml, 48 h, simultaneous QA 2.5 μM, FIG. 1B) was “restored”. The “cell morphology, protection against TGF-β induced EMT” value ([4]; serum starved A549 cells, TGF-β 5 ng/ml with simultaneous QA 2.5 μM, FIG. 1A) was “reversing fibroblastic morphology induced by TGF-β treatment”.
